Laboratory results: patent US20030095982A1, “Fraction of Cordyceps sinensis and method of isolation thereof” (priority 2001, published 2003)

Assays:
[1] = tested on: platelet aggregation induced by PAF; assay: PAF induced rabbit platelet aggregation in vitro; type: cell-based; conditions: 0.625 mM; washed rabbit platelets; PAF 2 nM; preincubated 2 min
Excerpt: In terms of inhibition, PAF induced rabbit platelete aggregation is used as an index of PAF function inhibition. It was used as the first step in vitro screening method for identifying potential substances which are capable of inhibiting PAF function and may improve bronchial hyperresponsiveness in vivo.
Washed platelets were obtained from rabbits. In brief, rabbit blood was collected from the marginal ear vein into tubes containing one-sixth volume of acid-citrate-dextrose as anticoagulant. The blood was centrifuged at 200×g for 15 min at room temperature. The platelet-rich plasma was mixed with 1/40 volume of EDTA (final concentration 5 mM) and re-centrifuged at 1000×g for 12 min. The supernatant was discarded and the platelet pellet was suspended in modified Ca^2+-free Tyrode's buffer (137 mM NaCl, 2.8 mM KCl, 2 mM MgCl2, 0.33 mM NaH2PO4, 5 mM glucose, 10 mM HEPES) with 0.35% bovine serum albumin, heparin (50 unit/ml) and apyrase (1 unit/ml). Following incubation at 37° C. for 20 min, the washed platelet pellet was resuspended in Tyrode's buffer containing 1 mM Ca^2+. The platelet number were counted by using a hemocytometer and adjusted to 3.5×10^8 platelets/ml. […] Aggregation was measured by a turbidimetric method. […] The inhibitory activities of F-4 and F-8 on platelet aggregation induced by PAF were calculated according the equation: [formula]

[2] = tested on: ovalbumin (OA) induced bronchial hyperresponsiveness; assay: Histological examination of lung tissue in asthma model; type: in vivo, brown Norway rats (BNR); conditions: prophylactic and therapeutic treatment
Description: After BAL, each animal's chest was opened and the lungs were removed. The trachea and right lower lobe was fixed in 10% formaldehyde, dehydrated by different concentrations of alcohol, then embedded in paraffin, and cut into 4 μm thicknesses, stained with haematoxylin and eosin, and examined by light microscope. Histologic specimens (n=6 per each time point) were prepared. The trachea and each lobe were fixed in 10% formaldehyde, dehydrated by different concentrations of alcohol, then embedded in paraffin, and cut into 4 μm thicknesses; stained with haematosylin and eosin, and examined by light microscope for evaluation of the severity of inflammation. Each trachea and lung section was blindly assigned an inflammation score by two pathologists as follows; 1=rare or occasional inflammation cells scattered through the lung or trachea; 3=abundant inflammatory cells scattered through the lung or trachea; 2=inflammatory cells between the levels of 1 and 3. The total inflammation score for each animal was calculated as mean of the scores for 5 lung sections and trachea.

[3] = tested on: IFNγ (Th-1 related), IL-4, IL-5, IL-10 (Th-2 related) and iNOS mRNA; assay: Cytokine and iNOS mRNA in lung tissue by RT-PCR; type: in vivo, brown Norway rats (BNR); conditions: prophylactic and therapeutic treatment, OA asthma model
Description: The in vivo role of F-4 and F8 of Th1/Th2 cytokines by […] mRNA in lung tissue and nuclear factor (NF)κ B activity using an electromobility shift assay (EMSA)
Total RNA was extracted from lung tissue samples by a method described previously and RT-PCR was performed using a RT-PCR kit (Clontech, USA). The following T-cell related cytokines were evaluated by measuring their mRNA expression: IFNγ (Th-1 related) and IL-4, IL-5 and IL-10 (all Th-2 related) and inducible nitric oxide synthase (iNOS).
Briefly, 2 μg of RNA in a 25 μl volume was first primed with 2 μl oligo-(dT)18 primer, 20 μM, at 70° C. for 2 min and then kept on ice for 5 min. after the reaction, a mixture containing the following: 8 μl of 5×reaction buffer; 2 μl, dNTP mix […] (each); 1 μl recombinant Rnase inhibitor, 40 units/μ1; and 2 μl MMLV reverse transcriptase, 200 units/μ1, was added to synthesize cDNA. cDNA was amplified by 40 PCR cycles; each consisting of a denaturation step (94° C. for 1 min), an annealing step (65˜55° C. for 1 min, 0.5° C./cycle touch down, 55° C. for 19 cycles), and an extension step (72° C. for 1 min). During the last cycle the 72° C. step was extended to 5 min. The PCR product was analyzed on 2% agarose gel electrophoresis. The identity of each cytokine cDNA was determined by the size of the PCR product obtained by electrophoresis, and confirmed by DNA sequencing of the PCR products. […]

ICR mice = assay: Acute toxicity test in ICR mice; type: in vivo; conditions: normal diet with 2% ratio, killed after 7 days
Excerpt: The methodology used to carry out acute toxicity testing for this invention was as follows: ICR mice that had been fed on a normal diet with the above active compound included to constitute a 2% ratio were killed after 7 days in order to ascertain whether there was any evidence of toxicity.
B: Compound F8: This refers to F8 (for spectroscopic and structural data, see FIG. 2a, 2b, and 3). The molecular formula of compound F8 is C28H46O3. To confirm the potential applicability of the above fractions and to check for obvious toxicity or mutagenicity, Ames test and acute toxicity test were conducted on white mice (ICR-mice) using the F4 fraction or compound F8.

`CC(C)[C@@H](C)C=C[C@@H](C)[C@H]1CC[C@H]2C3=C[C@@H](O)[C@@]4(O)C[C@@H](O)CC[C@]4(C)[C@H]3CC[C@]12C` [F8, (24R)-ergosta-7,22-diene-3β, 5α, 6β,-triol] was tested, and the “Inhibitory Activity (%)” value [1] was 97±2.6%, the pulmonary histological change [2] was “improve pulmonary histological change” and the Th1 cytokines expression [3] was “enhance Th1 cytokines expression”. For the same compound, the “Th2 cytokines and iNOS gene mRNA expression” value [3] was “decrease Th2 cytokines and INOS gene mRNA expression” and the acute toxicity (ICR mice) was “no obvious evidence of toxicity or mutagenic properties”.
